Where a name gives a salt, the structure may show the parent alone.
Experiment: not given
Details: carboxylic acids and organic amine compounds used for the ionic liquids; cited from earlier work

Row | Compound | pKa
1 | CC(C)CCCCCCCCCCCCCCC(=O)O [Isostearic acid] | (pKa ≈ 4.9)
2 | CCCCCCCCCCCC(=O)O [Lauric acid] | (pKa ≈ 4.9)

Same assay, conditions: cited from earlier work

Row | Compound | pKa
3 | NC1CCCCC1 [Cyclohexylamine] | 10.63
4 | CCc1ccc(C(=O)C(C)CN2CCCCC2)cc1 (centres unmarked) [Eperisone, reference compound] | 8.91
5 | CCc1cccc2c3c([nH]c12)C(CC)(CC(=O)O)OCC3 (centres unmarked) [Etodolac, reference compound] | 4.5
6 | CC(C(=O)O)c1ccc(-c2ccccc2)c(F)c1 (centres unmarked) [Flurbiprofen, reference compound] | 3.78
7 | CC(C)CCCCCCCCCCCCCCC(=O)O [Isostearic acid] | approximately 4.9
8 | CC(=O)CCC(=O)O [Levulinic acid] | 4.5
9 | CC(C(=O)O)c1ccc(CC2CCCC2=O)cc1 (centres unmarked) [Loxoprofen, reference compound] | 4.20
10 | CCCCCCCCCCCCCC(=O)O [Myristic acid] | ca.4.9
11 | OCCN1CCCC1 [N-hydroxyethyl-pyrrolidine, N-hydroxyethylpyrrolidine] | 10.32
12 | CCCCCCN [n-Hexylamine] | 10.85
13 | CCCCCCCC/C=C\CCCCCCCC(=O)O [oleic acid] | approximately 4.9

Experiment: Transdermal absorbability evaluation test using Franz-cells (rat skin permeation)
Details: indomethacin; cumulative amount permeated 6 hours after start of test; rat skin, Franz-cells

Row | Compound | Transdermal absorbability
14 | COc1ccc2c(c1)c(CC(=O)O)c(C)n2C(=O)c1ccc(Cl)cc1 [Indomethacin, reference compound] | approximately 3 μg/cm^2

Same assay, conditions: tramadol salt liquid preparation free from ionic liquid; percentage of amount added onto the rat skin

Row | Compound | Rat skin permeability after 6 hours [%]
15 | CCCCC(CC)C(=O)O.COc1cccc(C2(O)CCCCC2CN(C)C)c1 (centres unmarked) [2-ethylhexanoate, 2-ethylhexanoate of Tramadol] | 12.1
16 | COc1cccc(C2(O)CCCCC2CN(C)C)c1 (centres unmarked) [Hydrochloride, tramadol hydrochloride, reference compound] | 4.5
17 | Butyrate | 23.8
18 | Lactate | 0.2

Experiment: pKa of acidic and basic substances present in the compositions
Assay type: physicochemical
Details: assumed to be equal to that of an analogue (footnote *1)

Row | Compound | pKa
19 | Cc1ccc(C(=O)C(C)CN2CCCCC2)cc1 (centres unmarked) [Tolperisone, reference compound] | ~8.9
20 | CCCCCCCCN [n-Octylamine] | 10.7
